# Results from the supplement of paper PMC4862054.
# Key:
# Conditions in all cases: incubation time: 72 h
# BT-474 = test: normalised viability (% of control), CellTiter-Blue; higher = more viable cells (about 100 = DMSO control)
# Outline: (§1)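 Vehicle (100) and a positive kill control (0) anchored the normalisation of each plate, and Z'-factor was used for quality control. Breast cancer cell lines in 20 µl suspension were incubated 72 h over compound in 5 µl medium in 384-well plates, followed by CellTiter-Blue at 560/590 nm. The value is normalised viability at a single listed concentration of the series.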
# CAL-85-1 [1] = test: as above
# Outline: as §1
# HCC1143 [2] = test: as above
# Outline: as §1
# SK-BR-3 = test: as above
# Outline: as §1
# CAL-51 [3] = test: as above
# Outline: as §1
# MDA-MB-231 = test: as above
# Outline: as §1
# MDA-MB-468 = test: as above
# Outline: as §1
# BT-549 = test: as above
# Outline: as §1
# HCC1937 = test: as above
# Outline: as §1
# HCC1599 [4] = test: as above
# Outline: as §1
# HDQ-P1 [5] = test: as above
# Outline: as §1
# DU-4475 [6] = test: normalised viability (% of control), CellTiter-Blue; higher = more viable cells (about 100 = DMSO control)
# Method: (§2)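 DSRT, CellTiter-Blue viability, 72 h incubation. Signal is normalised to DMSO and benzethonium chloride controls. Value is the normalised response at dose 8.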
# CAL-85-1 [7] = test: as above; remark: listed apart in the source
# Method: as §2
# CAL-148 = test: as above
# Method: as §2
# CAL-51 [8] = test: as above; remark: listed apart in the source
# Method: as §2
# HDQ-P1 [9] = test: as above; remark: listed apart in the source
# Method: as §2
# MDA-MB-453 [10] = test: as above
# Method: as §2
# DU-4475 [11] = test: drug sensitivity score (DSS), CellTiter-Glo (DSS (AUC-based score)); higher = stronger drug effect (viability inhibition or cytotoxicity); extreme values may be limits of the assay
# Outline: (§3)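 A drug sensitivity score was derived from the area under each fitted dose-response curve. Breast cancer cells (20 µl suspension) were seeded onto compound in 384-well plates, using 5 concentrations 10-fold apart over a compound-specific 10,000-fold range, and incubated 72 h. Readouts were CellTox Green fluorescence and then CellTiter-Glo luminescence, with every plate normalised to 0.1 % DMSO and a positive kill control.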
# HCC1143 [12] = test: as above
# Outline: as §3
# MFM-223 = test: as above
# Outline: as §3
# MCF-10A = test: as above
# Outline: as §3
# MDA-MB-436 = test: as above
# Outline: as §3
# HCC1599 [13] = test: as above
# Outline: as §3
# HDQ-P1 [14] = test: as above
# Outline: as §3
# MDA-MB-453 [15] = test: as above
# Outline: as §3
smiles,measurement,setting,value
NCCCNCCSP(=O)(O)O [Amifostine],normalised viability,BT-474; 10 nM,94.2%
same,normalised viability,BT-474; 1000 nM,94.5%
same,normalised viability,BT-474; 10000 nM,111%
same,normalised viability,CAL-85-1 [1]; 3 nM,97.5%
same,normalised viability,CAL-85-1 [1]; 30 nM,88%
same,normalised viability,CAL-85-1 [1]; 100 nM,87.2%
same,normalised viability,HCC1143 [2]; 10 nM,79.2%
same,normalised viability,HCC1143 [2]; 1000 nM,84%
same,normalised viability,HCC1143 [2]; 10000 nM,75.2%
same,normalised viability,SK-BR-3; 10 nM,81.9%
same,normalised viability,SK-BR-3; 1000 nM,92.6%
same,normalised viability,SK-BR-3; 10000 nM,93.3%
same,normalised viability,CAL-51 [3]; 3 nM,113%
same,normalised viability,CAL-51 [3]; 30 nM,106%
same,normalised viability,CAL-51 [3]; 100 nM,107%
same,normalised viability,MDA-MB-231; 10 nM,86.7%
same,normalised viability,MDA-MB-231; 1000 nM,101%
same,normalised viability,MDA-MB-231; 10000 nM,86.5%
same,normalised viability,MDA-MB-468; 10 nM,102%
same,normalised viability,MDA-MB-468; 1000 nM,93%
same,normalised viability,MDA-MB-468; 10000 nM,91.3%
same,normalised viability,BT-549; 10 nM,81.4%
same,normalised viability,BT-549; 1000 nM,96.6%
same,normalised viability,BT-549; 10000 nM,93.3%
same,normalised viability,HCC1937; 10 nM,79.2%
same,normalised viability,HCC1937; 1000 nM,95%
same,normalised viability,HCC1937; 10000 nM,89.5%
same,normalised viability,HCC1599 [4]; 10 nM,102%
same,normalised viability,HCC1599 [4]; 1000 nM,72.4%
same,normalised viability,HCC1599 [4]; 10000 nM,81.7%
same,normalised viability,HDQ-P1 [5]; 3 nM,101%
same,normalised viability,HDQ-P1 [5]; 30 nM,95.5%
same,normalised viability,HDQ-P1 [5]; 100 nM,84.8%
same,normalised viability,DU-4475 [6]; 3000 nM,110%
same,normalised viability,CAL-85-1 [7]; 3000 nM,91.6%
same,normalised viability,CAL-148; 3000 nM,95.1%
same,normalised viability,CAL-51 [8]; 3000 nM,107%
same,normalised viability,HDQ-P1 [9]; 3000 nM,94.8%
same,normalised viability,MDA-MB-453 [10]; 3000 nM,96.6%
CC[C@H](C)C(=O)O[C@H]1C[C@H](O)C=C2C=C[C@H](C)[C@H](CC[C@@H](O)C[C@@H](O)CC(=O)O)[C@H]21 [Pravastatin],drug sensitivity score,DU-4475 [11],4.02
same,drug sensitivity score,HCC1143 [12],2.94
same,drug sensitivity score,MFM-223,2.84
same,drug sensitivity score,MCF-10A,0
same,drug sensitivity score,MDA-MB-436,26.2
same,drug sensitivity score,HCC1599 [13],6.85
same,drug sensitivity score,HDQ-P1 [14],1.68
same,drug sensitivity score,MDA-MB-453 [15],0
Cc1cnc(NC(=O)Nc2cc(Br)c(C)cc2OC[C@@H]2CNCCO2)cn1,normalised viability,BT-474; 1 nM,102%
same,normalised viability,BT-474; 100 nM,107%
same,normalised viability,BT-474; 1000 nM,107%
same,normalised viability,CAL-85-1 [1]; 0.3 nM,90.6%
same,normalised viability,CAL-85-1 [1]; 3 nM,89.4%
same,normalised viability,CAL-85-1 [1]; 10 nM,106%
same,normalised viability,HCC1143 [2]; 1 nM,97.9%
same,normalised viability,HCC1143 [2]; 100 nM,90%
same,normalised viability,HCC1143 [2]; 1000 nM,79.3%
same,normalised viability,SK-BR-3; 1 nM,98.9%
same,normalised viability,SK-BR-3; 100 nM,101%
same,normalised viability,SK-BR-3; 1000 nM,30.1%
same,normalised viability,CAL-51 [3]; 0.3 nM,97.8%
same,normalised viability,CAL-51 [3]; 3 nM,85.7%
same,normalised viability,CAL-51 [3]; 10 nM,93.1%
same,normalised viability,MDA-MB-231; 1 nM,106%
same,normalised viability,MDA-MB-231; 100 nM,103%
same,normalised viability,MDA-MB-231; 1000 nM,94%
same,normalised viability,MDA-MB-468; 1 nM,106%
same,normalised viability,MDA-MB-468; 100 nM,110%
same,normalised viability,MDA-MB-468; 1000 nM,56.6%
same,normalised viability,BT-549; 1 nM,90.9%
same,normalised viability,BT-549; 100 nM,96%
same,normalised viability,BT-549; 1000 nM,92%
same,normalised viability,HCC1937; 1 nM,108%
same,normalised viability,HCC1937; 100 nM,80.7%
same,normalised viability,HCC1937; 1000 nM,50.6%
same,normalised viability,HCC1599 [4]; 1 nM,112%
same,normalised viability,HCC1599 [4]; 100 nM,95.7%
same,normalised viability,HCC1599 [4]; 1000 nM,65.7%
same,normalised viability,HDQ-P1 [5]; 0.3 nM,104%
same,normalised viability,HDQ-P1 [5]; 3 nM,88.4%
same,normalised viability,HDQ-P1 [5]; 10 nM,68.7%
same,normalised viability,DU-4475 [6]; 300 nM,102%
same,normalised viability,CAL-85-1 [7]; 300 nM,88.1%
same,normalised viability,CAL-148; 300 nM,107%
same,normalised viability,CAL-51 [8]; 300 nM,103%
same,normalised viability,HDQ-P1 [9]; 300 nM,96.2%
same,normalised viability,MDA-MB-453 [10]; 300 nM,93.3%
O=C(O)CCCCC(CCSCc1ccccc1)SCc1ccccc1 (stereo not drawn) [CPI-613],drug sensitivity score,DU-4475 [11],0
same,drug sensitivity score,HCC1143 [12],0
same,drug sensitivity score,MFM-223,0
same,drug sensitivity score,MCF-10A,0
same,drug sensitivity score,MDA-MB-436,0
same,drug sensitivity score,HCC1599 [13],0
same,drug sensitivity score,HDQ-P1 [14],0
same,drug sensitivity score,MDA-MB-453 [15],0
CC(=O)Nc1cccc(-n2c(=O)n(C3CC3)c(=O)c3c(Nc4ccc(I)cc4F)n(C)c(=O)c(C)c32)c1,normalised viability,BT-474; 0.25 nM,118%
same,normalised viability,BT-474; 25 nM,111%
same,normalised viability,BT-474; 250 nM,122%
same,normalised viability,CAL-85-1 [1]; 0.075 nM,102%
same,normalised viability,CAL-85-1 [1]; 0.75 nM,93.6%
same,normalised viability,CAL-85-1 [1]; 2.5 nM,97%
same,normalised viability,HCC1143 [2]; 0.25 nM,124%
same,normalised viability,HCC1143 [2]; 25 nM,71%
same,normalised viability,HCC1143 [2]; 250 nM,64.6%
same,normalised viability,SK-BR-3; 0.25 nM,111%
same,normalised viability,SK-BR-3; 25 nM,111%
same,normalised viability,SK-BR-3; 250 nM,97.7%
same,normalised viability,CAL-51 [3]; 0.075 nM,103%
same,normalised viability,CAL-51 [3]; 0.75 nM,89.4%
same,normalised viability,CAL-51 [3]; 2.5 nM,84.4%
same,normalised viability,MDA-MB-231; 0.25 nM,101%
same,normalised viability,MDA-MB-231; 25 nM,39.6%
same,normalised viability,MDA-MB-231; 250 nM,38.7%
same,normalised viability,MDA-MB-468; 0.25 nM,110%
same,normalised viability,MDA-MB-468; 25 nM,92.6%
same,normalised viability,MDA-MB-468; 250 nM,74.7%
same,normalised viability,BT-549; 0.25 nM,87.6%
same,normalised viability,BT-549; 25 nM,92.3%
same,normalised viability,BT-549; 250 nM,86.2%
same,normalised viability,HCC1937; 0.25 nM,132%
same,normalised viability,HCC1937; 25 nM,112%
same,normalised viability,HCC1937; 250 nM,89.2%
same,normalised viability,HCC1599 [4]; 0.25 nM,93.1%
same,normalised viability,HCC1599 [4]; 25 nM,69.8%
same,normalised viability,HCC1599 [4]; 250 nM,50.1%
same,normalised viability,HDQ-P1 [5]; 0.075 nM,112%
same,normalised viability,HDQ-P1 [5]; 0.75 nM,98.3%
same,normalised viability,HDQ-P1 [5]; 2.5 nM,99.3%
same,normalised viability,DU-4475 [6]; 75 nM,-1.23%
same,normalised viability,CAL-85-1 [7]; 75 nM,38.8%
same,normalised viability,CAL-148; 75 nM,85.2%
same,normalised viability,CAL-51 [8]; 75 nM,73.3%
same,normalised viability,HDQ-P1 [9]; 75 nM,47.9%
same,normalised viability,MDA-MB-453 [10]; 75 nM,72.8%
